Reference: patent US20050176764A1, “Medicine for treating cancer” (KOWA CO., LTD, priority 2002, published 2005)
Where a name gives a salt, the structure may show the parent alone.

Legend:
Type in all cases: cell-based
HCT-15 (colon cancer) = assay: Cancer cell growth inhibition, WST-1 colorimetry; details: Homo sapiens, HCT-15, 48 hours
Procedure: (§1) Cultured human cancer cells were added to a 96-well plate. On the following day, a solution of each of the compounds prepared in Examples 13, 23, 29, 36, and 114 (in five concentrations resulting from 10-fold stepwise dilution: 10^−4, 10^−5, 10^−6, 10^−7, or 10^−8 M) was added, followed by incubation for 48 hours. Subsequently, % growth of the cells was measured through colorimetry by use of a WST-1 (Dojindo) reagent for measurement of cell count. From the measurement data, % growth was calculated by use of the following equation, and 50% growth inhibitory concentration (GI50) was calculated from the dose-response curve of each compound: % growth={[(OD as measured after 48 hours from addition of compound)−(OD at time zero)]/[(OD of control as measured after 48 hours)−(OD at time zero)]}×100.

MCF-7 (breast cancer) = assay: Cancer cell growth inhibition, WST-1 colorimetry; details: Homo sapiens, MCF7, MCF-7, 48 hours
Procedure: as §1

MKN-45 (stomach cancer) = assay: Cancer cell growth inhibition, WST-1 colorimetry; details: Homo sapiens, MKN-45, 48 hours
Procedure: as §1

MKN-74 (stomach cancer) = assay: Cancer cell growth inhibition, WST-1 colorimetry; details: Homo sapiens, MKN-74, 48 hours
Procedure: as §1

[1] = system: cultured human cancer cells; assay: Cancer cell growth inhibition, WST-1 colorimetry, overall statement; details: result in words, 48 hours
Procedure: as §1

[2] = system: Human umbilical venous endothelial cells (HUVECs); assay: Gene expression analysis (GeneChip HuGene FL array) in TNFα-stimulated HUVECs; details: Example 10 at 1 μM, TSA at 10 μM
Procedure: Human umbilical venous endothelial cells (HUVECs) were placed in 10 cm dishes (3×10^5 cells/dish). Two days thereafter, Trichostatin A (TSA, produced by Upstate) dissolved in dimethyl sulfoxide (DMSO) and the compound prepared in Example 10 dissolved in DMSO were individually added to a final concentrations of 10 μM and 1 μM, respectively. Each sample was stimulated with TNFα (final concentration: 10 ng/mL, Genzyme-Techne). Four hours later, total RNA was extracted with ISOGEN (Nippon Gene Co., Ltd.). The subsequent procedure was performed in accordance with the manufacturer's protocol (Affymetrix). From the thus obtained total RNA, mRNA was purified by a conventional method. cDNA was synthesized from the purified mRNA, and then biotin-labeled cRNA was synthesized by in vitro transcription. The cRNA was purified and subjected to heat treatment for fragmentation. The fragmented cRNA was used in gene expression analysis.
Method of gene expression analysis: The thus-prepared fragmented cRNA was injected to a HuGene human FL array (Affymetrix), and allowed to hybridize for 16 hours at 45° C. After washing, streptavidin labeled with phycoerythrin, and biotinylated anti-streptavidin antibody were added to each sample in order to cause reaction. Gene expression information was read by use of a dedicated scanner for GeneChip™ (Hewlett Packard). The thus-obtained information was analyzed with GeneChip Software (Affymetrix) for comparison in terms of level of expression.

[3] = out of 52 genes increased twice or more by TNFα

Structure (SMILES): COc1cc(-c2cc(CN3CCC(N(C)Cc4ccnc(-c5cc(OC)c(OC)c(OC)c5)c4)CC3)ccn2)cc(OC)c1OC [Example 36, 4-[N-methyl-N-[[2-(3,4,5-trimethoxyphenyl)pyridin-4-yl]methyl]amino]-1-[[2-(3,4,5-trimethoxyphenyl)pyridin-4-yl]methyl]piperidine Tetrahydrochloride]
- GI50 (HCT-15 (colon cancer)): 1 µM
- GI50 (MCF-7 (breast cancer)): 0.7 µM
- GI50 (MKN-45 (stomach cancer)): 2 µM
- GI50 (MKN-74 (stomach cancer)): 0.6 µM
- growth inhibitory effect on cultured human cancer cells [1]: strong growth inhibitory effect

Structure (SMILES): CC(/C=C/C(=O)NO)=C\[C@@H](C)C(=O)c1ccc(N(C)C)cc1 [TSA, Trichostatin A, reference compound]
- mRNA expression level of ABC transporter B2 ([2]; TNFα 10 ng/mL, 4 h): 66
- mRNA expression level of B94 ([2]; TNFα 10 ng/mL, 4 h): 924
- mRNA expression level of BCL3 ([2]; TNFα 10 ng/mL, 4 h): 198
- mRNA expression level of Cox-2 ([2]; TNFα 10 ng/mL, 4 h): 30
- mRNA expression level of EphrinA1 ([2]; TNFα 10 ng/mL, 4 h): 113
- mRNA expression level of Gro1 ([2]; TNFα 10 ng/mL, 4 h): 855
- mRNA expression level of I kappa B alpha ([2]; TNFα 10 ng/mL, 4 h): 1363
- mRNA expression level of IAP homolog B ([2]; TNFα 10 ng/mL, 4 h): 99
- mRNA expression level of ICAM-1 ([2]; TNFα 10 ng/mL, 4 h): 2303
- mRNA expression level of IFNGR2 ([2]; TNFα 10 ng/mL, 4 h): 209
- mRNA expression level of IL-7R ([2]; TNFα 10 ng/mL, 4 h): 44
- mRNA expression level of M-Ras-regulated GEF ([2]; TNFα 10 ng/mL, 4 h): 39
- mRNA expression level of MCP-1 ([2]; TNFα 10 ng/mL, 4 h): 46
- mRNA expression level of Na/K-ATPase beta-1 ([2]; TNFα 10 ng/mL, 4 h): 148
- mRNA expression level of Nef associated factor 1 ([2]; TNFα 10 ng/mL, 4 h): 396
- mRNA expression level of OB-cadherin-2 ([2]; TNFα 10 ng/mL, 4 h): 62
- mRNA expression level of RDC1 ([2]; TNFα 10 ng/mL, 4 h): 21
- mRNA expression level of Spliceosomal Protein Sap 49 ([2]; TNFα 10 ng/mL, 4 h): 79
- mRNA expression level of TRAF1 ([2]; TNFα 10 ng/mL, 4 h): 262
- mRNA expression level of VCAM-1 ([2]; TNFα 10 ng/mL, 4 h): 96
- mRNA expression level of beta-galactoside alpha-2; 6-sialyltransferase ([2]; TNFα 10 ng/mL, 4 h): 19
- mRNA expression level of caspase-like apoptosis regulatory protein 2 (clarp) ([2]; TNFα 10 ng/mL, 4 h): 50
- mRNA expression level of cytoplasmic antiproteinase 2 (CAP2) ([2]; TNFα 10 ng/mL, 4 h): 37
- mRNA expression level of ets-2 ([2]; TNFα 10 ng/mL, 4 h): 38
- mRNA expression level of exodus-1 ([2]; TNFα 10 ng/mL, 4 h): 1206
- mRNA expression level of fractalkine ([2]; TNFα 10 ng/mL, 4 h): 38
- mRNA expression level of junB ([2]; TNFα 10 ng/mL, 4 h): 123
- mRNA expression level of lymphotoxin beta ([2]; TNFα 10 ng/mL, 4 h): −40
- mRNA expression level of metalloproteinase stromelysin-2 ([2]; TNFα 10 ng/mL, 4 h): 69
- mRNA expression level of ninjurin1 ([2]; TNFα 10 ng/mL, 4 h): 150
- mRNA expression level of p50-NF-kappa B homolog ([2]; TNFα 10 ng/mL, 4 h): 57
- number of genes whose expression was enhanced [2, 3]: 6 genes
- number of genes whose expression was inhibited [2, 3]: 25 genes

Structure (SMILES): COc1ccc(N(Cc2cncc(-c3cc(OC)c(OC)c(OC)c3)c2)C2CCN(Cc3ccnc(-c4cc(OC)c(OC)c(OC)c4)c3)CC2)cc1 [Example 13, 4-[N-(4-methoxyphenyl)-N-[[5-(3,4,5-trimethoxyphenyl)pyridin-3-yl]methyl]amino]-1-[[2-(3,4,5-trimethoxyphenyl)pyridin-4-yl]methyl]piperidine Trihydrochloride]
- GI50 (HCT-15 (colon cancer)): 0.8 µM
- GI50 (MCF-7 (breast cancer)): 0.7 µM
- GI50 (MKN-45 (stomach cancer)): 3 µM
- GI50 (MKN-74 (stomach cancer)): 0.7 µM
- growth inhibitory effect on cultured human cancer cells [1]: strong growth inhibitory effect

Structure (SMILES): COc1cc(-c2cc(CN3CCC(N(Cc4ccnc(-c5cc(OC)c(OC)c(OC)c5)c4)c4ccc5c(c4)OCO5)CC3)ccn2)cc(OC)c1OC [Example 29, 4-[N-(3,4-methylenedioxyphenyl)-N-[[2-(3,4,5-trimethoxyphenyl)pyridin-4-yl]methyl]amino]-1-[[2-(3,4,5-trimethoxyphenyl)pyridin-4-yl]methyl] piperidine Trihydrochloride]
- GI50 (HCT-15 (colon cancer)): 0.8 µM
- GI50 (MCF-7 (breast cancer)): 0.7 µM
- GI50 (MKN-45 (stomach cancer)): 3 µM
- GI50 (MKN-74 (stomach cancer)): 0.4 µM
- growth inhibitory effect on cultured human cancer cells [1]: strong growth inhibitory effect

Structure (SMILES): COc1cc(-c2cncc(CN(c3ccc(SC)cc3)C3CCN(Cc4ccnc(-c5cc(OC)c(OC)c(OC)c5)c4)CC3)c2)cc(OC)c1OC [Example 114]
- GI50 (HCT-15 (colon cancer)): 0.8 µM
- GI50 (MCF-7 (breast cancer)): 0.6 µM
- GI50 (MKN-45 (stomach cancer)): 2 µM
- GI50 (MKN-74 (stomach cancer)): 0.2 µM
- growth inhibitory effect on cultured human cancer cells [1]: strong growth inhibitory effect

Structure (SMILES): COc1cc(OC)cc(N(Cc2ccnc(-c3cc(OC)c(OC)c(OC)c3)c2)C2CCN(Cc3ccnc(-c4cc(OC)c(OC)c(OC)c4)c3)CC2)c1 [Example 23, 4-[N-(3,5-dimethoxyphenyl)-N-[[2-(3,4,5-trimethoxyphenyl)pyridin-4-yl]methyl]amino]-1-[[2-(3,4,5-trimethoxyphenyl)pyridin-4-yl]methyl]piperidine Trihydrochloride]
- GI50 (HCT-15 (colon cancer)): 0.9 µM
- GI50 (MCF-7 (breast cancer)): 0.6 µM
- GI50 (MKN-45 (stomach cancer)): 4 µM
- GI50 (MKN-74 (stomach cancer)): 0.7 µM
- growth inhibitory effect on cultured human cancer cells [1]: strong growth inhibitory effect
